The results in this text go back to US10131653B2, “Heterocyclic compound” (TAKEDA PHARMACEUTICAL COMPANY LIMITED, priority 2015, dated 2018).

Where a name gives a salt, the structure may show the parent alone. Read-outs that look alike come from different tables or passages of the source.

One experiment addresses T1, human OX1 receptor (Homo sapiens, UniProt O43613).
T1 construct: expressed in transfected cells; host or cells: CHO cells
T1 sequence (O43613 1-425): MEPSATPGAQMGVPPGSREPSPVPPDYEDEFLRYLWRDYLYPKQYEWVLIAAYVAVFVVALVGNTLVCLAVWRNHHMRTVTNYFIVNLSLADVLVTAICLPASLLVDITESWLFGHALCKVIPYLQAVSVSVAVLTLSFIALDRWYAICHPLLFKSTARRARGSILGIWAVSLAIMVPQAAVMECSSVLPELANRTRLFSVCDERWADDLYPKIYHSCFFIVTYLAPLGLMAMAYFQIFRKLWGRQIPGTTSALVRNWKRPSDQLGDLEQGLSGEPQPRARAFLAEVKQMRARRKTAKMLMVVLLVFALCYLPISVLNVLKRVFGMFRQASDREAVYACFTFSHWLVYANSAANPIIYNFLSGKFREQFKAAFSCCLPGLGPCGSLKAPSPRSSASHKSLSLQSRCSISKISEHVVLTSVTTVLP
In words: Measurement of orexin receptor antagonistic activity (calcium fluorescence, FLIPRtetra). Type of experiment: cell-based. To be noted: CHO, read-out: Human Orexin1 receptor inhibition (at 10 μM). In a few lines:
(§1)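 CHO cells expressing human OX1 or OX2 receptor, cultured one day. Compound in HBSS/20 mM HEPES/0.1% BSA added, then orexin-A at 1 nM final (OX1) or 0.3 nM final (OX2); calcium fluorescence by FLIPRtetra every 1 s for 2 min.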

In a further experiment the target is T2, human OX2 receptor (Homo sapiens, UniProt O43614).
T2 construct: expressed in transfected cells; host or cells: CHO cells
T2 sequence (O43614 1-444): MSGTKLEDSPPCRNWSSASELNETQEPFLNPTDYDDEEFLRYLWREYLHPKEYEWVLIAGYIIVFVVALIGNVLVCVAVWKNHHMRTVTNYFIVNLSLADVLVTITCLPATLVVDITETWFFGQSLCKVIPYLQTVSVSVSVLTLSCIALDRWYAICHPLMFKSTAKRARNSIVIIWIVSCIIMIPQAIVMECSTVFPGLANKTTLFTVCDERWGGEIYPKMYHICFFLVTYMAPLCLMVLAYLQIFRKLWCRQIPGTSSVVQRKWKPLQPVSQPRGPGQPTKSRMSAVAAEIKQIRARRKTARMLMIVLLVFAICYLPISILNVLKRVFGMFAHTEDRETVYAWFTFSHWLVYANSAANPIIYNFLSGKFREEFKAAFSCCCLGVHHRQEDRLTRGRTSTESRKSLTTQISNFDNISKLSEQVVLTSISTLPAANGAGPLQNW
Described as above. Type of experiment: cell-based. To be noted: CHO, read-out: Human Orexin2 receptor inhibition (at 10 μM). In a few lines:
as §1

Where [1] appears, read: 10 μM test compound, CHO cells expressing human OX1 receptor, OX-A 1 nM.
Where [2] appears, read: 10 μM test compound, CHO cells expressing human OX2 receptor, OX-A 0.3 nM.

Take `Cc1ccc(-n2nccn2)c(C(=O)N2CCN(c3cccc(-n4cccn4)n3)OC[C@H]2C)c1` [Example 138, ((6R)-6-methyl-2-(6-(1H-pyrazol-1-yl)pyridin-2-yl)-1,2,5-oxadiazepan-5-yl) (5-methyl-2-(2H-1,2,3-triazol-2-yl)phenyl)methanone]: the inhibition at 10 µM at human OX1 receptor was found to be 96%; on human OX2 receptor, 95%.

Turning to `C[C@@H]1CON(c2cccc(CO)n2)CCN1C(=O)c1ccccc1-n1nccn1` [Example 158, ((6R)-2-(6-(hydroxymethyl)pyridin-2-yl)-6-methyl-1,2,5-oxadiazepan-5-yl)(2-(2H-1,2,3-triazol-2-yl)phenyl)methanone], the inhibition at 10 µM is 18% on human OX1 receptor (setting [1]) and 99% at human OX2 receptor (setting [2]).

For the compound `Cc1cc(C)nc(N2CCN(C(=O)c3ccccc3-n3cccc3)CCO2)n1` [Example 80, (2-(4,6-dimethylpyrimidin-2-yl)-1,2,5-oxadiazepan-5-yl) (2-(1H-pyrrol-1-yl)phenyl)methanone], the inhibition at 10 µM is 14% on human OX1 receptor and 94% at human OX2 receptor.

As for `Cc1nc(C(F)F)cc(N2C[C@H](C)N(C(=O)c3cc(Cl)ccc3-n3nccn3)[C@H](C)CO2)n1` [Example 182, (5-chloro-2-(2H-1,2,3-triazol-2-yl)phenyl)((4S,6R)-2-(6-(difluoromethyl)-2-methylpyrimidin-4-yl)-4,6-dimethyl-1,2,5-oxadiazepan-5-yl)methanone], the inhibition at 10 µM at human OX1 receptor (setting [1]) stood at 100%; on human OX2 receptor (setting [2]), 98%.

Consider `Cc1ccc(-n2nccn2)c(C(=O)N2CCON(c3ncc4ccccc4n3)CC2)c1` [Example 38, (5-methyl-2-(2H-1,2,3-triazol-2-yl)phenyl)(2-(quinazolin-2-yl)-1,2,5-oxadiazepan-5-yl)methanone], for which the inhibition at 10 µM at human OX1 receptor (setting [1]) came out at 92%; at human OX2 receptor (setting [2]), 90%.

For `Cc1cc(N2CCN(C(=O)c3cc(F)c(F)cc3-n3nccn3)C[C@H](C)O2)nc(C)n1` [Example 106, (4,5-difluoro-2-(2H-1,2,3-triazol-2-yl)phenyl)((7S)-2-(2,6-dimethylpyrimidin-4-yl)-7-methyl-1,2,5-oxadiazepan-5-yl)methanone], the results for the inhibition at 10 µM on human OX1 receptor (setting [1]) and at human OX2 receptor (setting [2]) were 38% and 99%, respectively.

Turning to `Cc1cc(N2CCN(C(=O)c3cc(Cl)ccc3-c3nccs3)C[C@H](C)O2)nc(C)n1` [Example 88, (5-chloro-2-(1,3-thiazol-2-yl)phenyl)((7S)-2-(2,6-dimethylpyrimidin-4-yl)-7-methyl-1,2,5-oxadiazepan-5-yl)methanone hydrochloride], the inhibition at 10 µM at human OX1 receptor (setting [1]) was 101%; on human OX2 receptor (setting [2]), 99%.

Consider `COc1cc(N2CCN(C(=O)c3ccccc3-n3nccn3)[C@H](C)CO2)nc(OC)n1` [Example 153, ((6R)-2-(2,6-dimethoxypyrimidin-4-yl)-6-methyl-1,2,5-oxadiazepan-5-yl)(2-(2H-1,2,3-triazol-2-yl)phenyl)methanone], for which the inhibition at 10 µM came to 94% on human OX1 receptor (setting [1]) and 99% at human OX2 receptor (setting [2]).

In the case of `Cc1cc(C)nc(N2CCN(C(=O)c3cccc4nccnc34)CCO2)n1` [Example 67, (2-(4,6-dimethylpyrimidin-2-yl)-1,2,5-oxadiazepan-5-yl) (quinoxalin-5-yl)methanone], the inhibition at 10 µM at human OX1 receptor was found to be 5%; on human OX2 receptor it was 44%.

With `Cc1nc(N2CCN(C(=O)c3ccccc3-n3nccn3)C[C@H](C)O2)cc(C(F)(F)F)n1` [Example 92, ((7S)-7-methyl-2-(2-methyl-6-(trifluoromethyl)pyrimidin-4-yl)-1,2,5-oxadiazepan-5-yl)(2-(2H-1,2,3-triazol-2-yl)phenyl)methanone], the inhibition at 10 µM on human OX1 receptor (setting [1]) was found to be 73%; at human OX2 receptor (setting [2]), 101%.

`Cc1cc(N2CCN(C(=O)c3cc(Cl)ccc3-n3nccn3)CCO2)nc(C)n1` [Example 25, (5-chloro-2-(2H-1,2,3-triazol-2-yl)phenyl) (2-(2,6-dimethyl-pyrimidin-4-yl)-1,2,5-oxadiazepan-5-yl)methanone]: the values for the inhibition at 10 µM on human OX1 receptor (setting [1]) and at human OX2 receptor (setting [2]) were 61% and 98%, respectively.

Take `Cc1cc(N2C[C@H](C)N(C(=O)c3ccccc3-n3nccn3)CC(C)O2)nc(C)n1` (stereo partly drawn) [Example 190, ((4S)-2-(2,6-dimethylpyrimidin-4-yl)-4,7-dimethyl-1,2,5-oxadiazepan-5-yl)(2-(2H-1,2,3-triazol-2-yl)phenyl)methanone]: the inhibition at 10 µM came out at 107% on human OX1 receptor (setting [1]) and 111% on human OX2 receptor (setting [2]).

As to `CCC1CN(C(=O)c2ccccc2-n2nccn2)CCN(c2cc(C)nc(C)n2)O1` (stereo not shown) [Example 112, (2-(2,6-dimethylpyrimidin-4-yl)-7-ethyl-1,2,5-oxadiazepan-5-yl)(2-(2H-1,2,3-triazol-2-yl)phenyl)methanone], the inhibition at 10 µM on human OX1 receptor (setting [1]) is 90%; on human OX2 receptor (setting [2]) it was 101%.

`Cc1cc(C)nc(N2CCN(C(=O)c3cccc4ncc(C)nc34)CCO2)n1` [Example 68, (2-(4,6-dimethylpyrimidin-2-yl)-1,2,5-oxadiazepan-5-yl) (3-methylquinoxalin-5-yl)methanone]: the inhibition at 10 µM on human OX1 receptor was 28%; at human OX2 receptor it was 87%.

In the case of `Cc1cc(C)nc(N2CCN(C(=O)c3cccc(-c4ccccc4)c3)CCO2)n1` [Example 78, biphenyl-3-yl (2-(4,6-dimethylpyrimidin-2-yl)-1,2,5-oxadiazepan-5-yl)methanone], the results for the inhibition at 10 µM at human OX1 receptor (setting [1]) and at human OX2 receptor (setting [2]) were 27% and 52%, respectively.

`Cc1cc(C)nc(N2CCN(C(=O)c3ccccc3-n3nccn3)[C@H](C)CO2)n1` [Example 147, ((6R)-2-(4,6-dimethylpyrimidin-2-yl)-6-methyl-1,2,5-oxadiazepan-5-yl) (2-(2H-1,2,3-triazol-2-yl)phenyl)methanone]: the inhibition at 10 µM amounted to 60% on human OX1 receptor (setting [1]) and 101% on human OX2 receptor (setting [2]).

Take `Cc1ccc(-n2nccn2)c(C(=O)N2CCN(c3ncc4sccc4n3)OC[C@H]2C)c1` [Example 116, ((6R)-6-methyl-2-(thieno[3,2-d]pyrimidin-2-yl)-1,2,5-oxadiazepan-5-yl) (5-methyl-2-(2H-1,2,3-triazol-2-yl)phenyl)methanone]: the values for the inhibition at 10 µM at human OX1 receptor (setting [1]) and on human OX2 receptor (setting [2]) were 101% and 100%, respectively.

`Cc1cc(C)nc(N2CCN(C(=O)c3cc(F)ccc3-n3nccn3)[C@H](C)CO2)n1` [Example 161, ((6R)-2-(4,6-dimethylpyrimidin-2-yl)-6-methyl-1,2,5-oxadiazepan-5-yl)(5-fluoro-2-(2H-1,2,3-triazol-2-yl)phenyl)methanone hydrochloride]: the results for the inhibition at 10 µM at human OX1 receptor (setting [1]) and at human OX2 receptor (setting [2]) were 46% and 102%, respectively.

Turning to `Cc1cc(C)nc(N2CCN(C(=O)c3ccccc3-c3ncc[nH]3)CCO2)n1` [Example 82, (2-(4,6-dimethylpyrimidin-2-yl)-1,2,5-oxadiazepan-5-yl) (2-(1H-imidazol-2-yl)phenyl)methanone], the inhibition at 10 µM on human OX1 receptor (setting [1]) is 18%; at human OX2 receptor (setting [2]), 83%.

Take `Cc1ccc(-n2nccn2)c(C(=O)N2CCN(c3cccc(C#N)c3)OC[C@H]2C)c1` [Example 140, 3-((6R)-6-methyl-5-(5-methyl-2-(2H-1,2,3-triazol-2-yl)benzoyl)-1,2,5-oxadiazepan-2-yl)benzonitrile]: the inhibition at 10 µM came to 21% at human OX1 receptor and 88% on human OX2 receptor.

Regarding `Cc1cc(N2CCN(C(=O)c3ccccc3-n3cccn3)CCO2)nc(C)n1` [Example 30, (2-(2,6-dimethyl-pyrimidin-4-yl)-1,2,5-oxadiazepan-5-yl) (2-(1H-pyrazol-1-yl)phenyl) methanone], the inhibition at 10 µM was determined as 1% at human OX1 receptor (setting [1]) and 101% on human OX2 receptor (setting [2]).

Take `Cc1cc(C)nc(N2CCN(C(=O)c3ccccc3C)CCO2)n1` [Example 57, (2-(4,6-dimethylpyrimidin-2-yl)-1,2,5-oxadiazepan-5-yl) (2-methylphenyl)methanone]: the inhibition at 10 µM came out at 10% on human OX1 receptor and 58% on human OX2 receptor.

Turning to `Cc1cc(N2CCN(C(=O)c3cc(C(F)(F)F)ccc3-n3nccn3)C[C@H](C)O2)nc(C)n1` [Example 199, ((7S)-2-(2,6-dimethylpyrimidin-4-yl)-7-methyl-1,2,5-oxadiazepan-5-yl)(2-(2H-1,2,3-triazol-2-yl)-5-(trifluoromethyl)phenyl)methanone], the results for the inhibition at 10 µM at human OX1 receptor (setting [1]) and on human OX2 receptor (setting [2]) were 42% and 100%, respectively.
